In patent US20130274294A1, “4-(Hetero)Aryl-Ethynyl-Octahydro-Indole-1-Esters” (priority 2010, published 2013) one finds IC50 and solubility data, which are given here for nine compounds.

For one series, the target named is T1, human mGluR5a receptors (Homo sapiens, UniProt P41594).
T1 construct: expressed in transfected cells; host or cells: L(tk-) cells (mouse fibroblast line)
Put plainly: Inhibition of glutamate-induced elevation of intracellular calcium concentration in L(tk-) cells expressing human mGluR5a receptors. Type of series: cell-based. The conditions noted are these: agonist glutamate. From the text: This can be determined in vitro, for example, at recombinant human mGluR5, using different procedures like, for example, measurement of the inhibition of the agonist induced elevation of intracellular Ca^2+ concentration in accordance with L. P. Daggett et al., Neuropharm. Vol. 34, pages 871-886 (1995), P. J. Flor et al., J. Neurochem. Vol. 67, pages 58-63 (1996) or by determination to what extent the agonist induced elevation of the inositol phosphate turnover is inhibited as described by T. Knoepfel et al., Eur. J. Pharmacol. Vol. 288, pages 389-392 (1994), L. P. Daggett et al., Neuropharm. Vol. 67, pages 58-63 (1996) and references cited therein. Isolation and expression of human mGluR subtypes are described in U.S. Pat. No. 5,521,297.
Activity of compounds of the present invention was examined by determination to what extent the glutamate-induced elevation of the intracellular calcium concentration in L(tk-) cells expressing human mGluR5a receptors (see L. P. Daggett et al., Neuropharm. Vol. 34, pages 871-886, 1995) is inhibited by utilizing methods as described e.g. by L. P. Daggett et al., Neuropharm. Vol. 34, pages 871-886 (1995) and P. J. Flor et al., J. Neurochem. Vol. 67, pages 58-63 (1996).
The table below represents IC50 values of the inhibition of the glutamate-induced elevation of the intracellular calcium concentration.
For orientation: Calcium flux is commonly read through the fluorescence of an indicator in the cells.

Series [1] is described as follows: Solubility in Cl-free phosphate buffer (0.067 M), pH 6.8. It counts as physicochemical. The conditions noted are these: pH 6.8, aqueous buffer. The method, then: Solubility of compounds of the invention was determined in the following buffer: Cl-free phosphate buffer (0.067 M) is made from KH2PO4 solution and titrated to pH 6.8 with NaOH. The table below represents solubility values of compounds of the invention in the above buffer.

Converted amounts (≈) assume the structure as drawn.

T1 sequence (P41594 21-1180 isoform P41594-2 limits assumed): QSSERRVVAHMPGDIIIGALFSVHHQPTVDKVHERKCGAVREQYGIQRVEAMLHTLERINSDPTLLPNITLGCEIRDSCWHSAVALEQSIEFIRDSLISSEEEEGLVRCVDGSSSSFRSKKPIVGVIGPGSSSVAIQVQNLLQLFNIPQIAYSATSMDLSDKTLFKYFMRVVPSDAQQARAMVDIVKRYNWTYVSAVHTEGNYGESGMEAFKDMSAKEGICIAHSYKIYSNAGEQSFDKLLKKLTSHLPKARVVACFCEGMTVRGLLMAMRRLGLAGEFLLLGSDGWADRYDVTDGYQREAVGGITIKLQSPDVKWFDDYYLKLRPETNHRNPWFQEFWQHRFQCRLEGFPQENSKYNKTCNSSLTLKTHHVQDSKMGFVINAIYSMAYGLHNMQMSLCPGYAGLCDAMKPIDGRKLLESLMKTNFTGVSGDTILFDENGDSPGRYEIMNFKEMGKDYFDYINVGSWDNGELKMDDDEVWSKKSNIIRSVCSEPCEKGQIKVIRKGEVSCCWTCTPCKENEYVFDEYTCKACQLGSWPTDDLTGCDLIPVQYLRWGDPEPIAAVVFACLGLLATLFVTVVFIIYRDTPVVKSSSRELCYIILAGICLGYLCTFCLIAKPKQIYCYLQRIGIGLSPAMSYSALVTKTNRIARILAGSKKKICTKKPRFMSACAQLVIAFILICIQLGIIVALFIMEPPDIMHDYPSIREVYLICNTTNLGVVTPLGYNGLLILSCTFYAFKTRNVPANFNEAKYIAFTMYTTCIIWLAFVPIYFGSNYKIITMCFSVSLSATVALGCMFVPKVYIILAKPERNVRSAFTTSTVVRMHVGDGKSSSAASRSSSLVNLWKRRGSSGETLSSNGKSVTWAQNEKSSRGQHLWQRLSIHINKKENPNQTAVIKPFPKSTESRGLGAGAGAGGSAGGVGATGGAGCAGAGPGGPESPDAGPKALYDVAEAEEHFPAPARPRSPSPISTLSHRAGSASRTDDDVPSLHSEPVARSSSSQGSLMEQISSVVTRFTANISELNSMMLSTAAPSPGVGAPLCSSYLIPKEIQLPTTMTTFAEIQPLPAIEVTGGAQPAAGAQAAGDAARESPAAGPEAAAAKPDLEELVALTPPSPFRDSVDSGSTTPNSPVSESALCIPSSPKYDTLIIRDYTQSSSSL

`COC(=O)N1CC[C@@H]2[C@H]1CCC[C@@]2(O)C#Cc1ccnc(Cl)c1` [Example 5, (3aR,4S,7aR)-methyl 4-((2-chloropyridin-4-yl)ethynyl)-4-hydroxyoctahydro-1H-indole-1-carboxylate]: the IC50 (in general, the midpoint of a concentration-inhibition curve) on human mGluR5a receptors came to 0.146 µM. In series [1], the solubility (commonly how much of the substance goes into solution per volume) is 0.175 mg/mL (≈ 523 µM).

`COC(=O)N1CC[C@@H]2[C@H]1CCC[C@@]2(O)C#Cc1cncc(C)c1` [Example 2, (3aR,4S,7aR)-methyl 4-hydroxy-4-((5-methylpyridin-3-yl)ethynyl)octahydro-1H-indole-1-carboxylate]: at human mGluR5a receptors, the 50% inhibitory concentration (IC50) is 1.1 µM. The solubility in series [1] is over 0.3 mg/mL.

As for `COC(=O)N1CC[C@@H]2[C@H]1CCC[C@@]2(N)C#Cc1cccc(C)c1` [Example 8, (3aR,4S,7aR)-methyl 4-amino-4-(m-tolylethynyl)octahydro-1H-indole-1-carboxylate], on human mGluR5a receptors, the IC50 worked out at 0.33 µM. In series [1], the solubility was over 0.3 mg/mL.

Take `COC(=O)N1CC[C@@H]2[C@H]1CCC[C@@]2(O)C#Cc1cccc(C)n1` [Example 4, (3aR,4S,7aR)-methyl 4-hydroxy-4-((6-methylpyridin-2-yl)ethynyl)octahydro-1H-indole-1-carboxylate]: on human mGluR5a receptors, the IC50 came to 1.43 µM.

With `COC(=O)N1CC[C@@H]2[C@H]1CCC[C@@]2(O)C#Cc1cc(C)ccn1` [Example 6, (3aR,4S,7aR)-methyl 4-hydroxy-4-((4-methylpyridin-2-yl)ethynyl)octahydro-1H-indole-1-carboxylate], the IC50 on human mGluR5a receptors is 0.74 µM. In series [1], the solubility amounted to 0.153 mg/mL (≈ 487 µM).

Take `COC(=O)N1CC[C@@H]2[C@H]1CCC[C@@]2(O)C#Cc1ccnc(C)c1` [Example 3, (3aR,4S,7aR)-methyl 4-hydroxy-4-((2-methylpyridin-4-yl)ethynyl)octahydro-1H-indole-1-carboxylate]: on human mGluR5a receptors, the half-inhibitory concentration (IC50) was 0.53 µM. The compound further yielded a solubility in series [1] of over 0.3 mg/mL.

Turning to `CCOC(=O)N1CC[C@@H]2[C@H]1CCC[C@@]2(N)C#Cc1cccc(C)c1` [Example 9, (3aR,4S,7aR)-ethyl 4-amino-4-(m-tolylethynyl)octahydro-1H-indole-1-carboxylate], on human mGluR5a receptors, the half-maximal inhibitory concentration (IC50) came out at 0.71 µM. Further, the solubility in series [1] is over 0.3 mg/mL.

With `COC(=O)N1CC[C@@H]2[C@H]1CCC[C@@]2(O)C#Cc1csc(C)n1` [Example 7, (3aR,4S,7aR)-methyl 4-hydroxy-4-((2-methylthiazol-4-yl)ethynyl)octahydro-1H-indole-1-carboxylate], the half-maximal inhibitory concentration (IC50) on human mGluR5a receptors is 0.47 µM. The solubility in series [1] was over 0.3 mg/mL.

`COC(=O)N1CC[C@@H]2[C@H]1CCC[C@@]2(O)C#Cc1cccc(Cl)c1` [Example 1, (3aR,4S,7aR)-methyl 4-((3-chlorophenyl)ethynyl)-4-hydroxyoctahydro-1H-indole-1-carboxylate]: the IC50 at human mGluR5a receptors is 0.016 µM. Besides, in series [1], the concentration in solution (solubility) was 0.103 mg/mL (≈ 309 µM).
